Results reported in patent publication EP1212309B1, “CASPASE INHIBITOR” (LG Chem Investment, Ltd., priority 1999, dated 2001).

Experiments:
Jurkat T cell = test: MTT assay of cell death induced by Anti-FAS antibody CH11; type: cell-based; details: Homo sapiens; Jurkat T cell treated with Anti-FAS antibody CH11, MTT; read-out: ED50 FAS Induced cell death
caspase-3 = target: T1, caspase-3 (Homo sapiens, UniProt P42574); test: Screening on caspases inhibiting activity (recombinant enzyme, fluorogenic AMC substrate); type: biochemical; details: Irreversible Inhibitors; for kinact/KI: read-out: Kobs/[I] for caspase-3
T1 construct: made in house
T1 sequence (P42574 29-175 limits assumed): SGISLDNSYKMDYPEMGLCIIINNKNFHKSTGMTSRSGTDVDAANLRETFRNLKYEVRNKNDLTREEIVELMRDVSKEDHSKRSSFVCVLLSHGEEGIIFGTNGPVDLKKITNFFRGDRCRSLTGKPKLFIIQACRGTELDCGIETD
T1 sequence (P42574 176-277 limits assumed): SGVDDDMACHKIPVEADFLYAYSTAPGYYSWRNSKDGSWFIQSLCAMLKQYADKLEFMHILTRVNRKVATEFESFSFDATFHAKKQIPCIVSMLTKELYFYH
Experimental: (§1) In the present experiment, recombinant caspases were purified from a transformed bacterium after human caspase genes were cloned into the expression vector pET, and then used in the experiment (Thornberry, N.A. et .al. Nature, 1992, 356, 768. Thombeny, N.A. Methods in Enzymology, 1994, 615.).
(§2) Enzymatic activity was measured by a known procedure (Walker N.P.C. et al., Cell 1994, 78, 343). Briefly, 10 ng of recombinant protein was mixed with 50 mM Tris(pH 7.0), 1mM DTT, 0.5 mM EDTA, 10% Glycerol buffer containing 1∼100 µM of enzyme substrate, Ac-YVAD-AMC or Ac-DEVD-AMC and then the changes by isolated AMC at 37°C were recorded. The inhibitory activity for caspases was calculated from the early enzyme reaction rate by measuring the changes with fluorescence excited at […] and emitted at 460 nm (Range; Ki<100nM).

caspase-1 = target: T2, caspase-1 (Homo sapiens, UniProt P29466); test: as above; type: biochemical; details: Irreversible Inhibitors; for kinact/KI: read-out: Kobs/[I] for caspase-1
T2 construct: made in house
T2 sequence (P29466 120-297 limits assumed): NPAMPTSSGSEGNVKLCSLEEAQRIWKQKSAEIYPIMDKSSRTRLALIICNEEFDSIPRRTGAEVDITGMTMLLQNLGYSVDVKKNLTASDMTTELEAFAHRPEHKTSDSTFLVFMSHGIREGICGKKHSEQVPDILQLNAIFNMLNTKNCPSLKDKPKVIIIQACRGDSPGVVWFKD
T2 sequence (P29466 317-404 limits assumed): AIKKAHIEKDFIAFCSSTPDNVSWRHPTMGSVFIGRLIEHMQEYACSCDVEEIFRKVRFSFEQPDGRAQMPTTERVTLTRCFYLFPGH
Experimental: as §1, §2

[1] = test system: anti-Fas antibody-induced liver apoptosis; test: Anti-Fas antibody (Jo2)-induced liver apoptosis and lethality in mice; type: in vivo, C57BL/6 female mice
Experimental: […] C57BL/6 female mice(18-20 g) were injected i.p. with compound 33MP dissolved in vehicle which consists of olive oil and 10% DMSO, or vehicle alone, at 1 hr before i.v. injection with 10 µg of Anti-Fas antibody (Jo2). Following 4 hrs of i.v. injection with Jo2 antibody, animals were placed under inhaled isoflurane anesthesia for blood collection and liver isolation. Mice were also i.p. injected with 0.2 µg/20 g of TNFα and 12 mg/20 g of D-galactosamine(TNFα /GalN) and compound 33MP or its salt form (Compound 33MP-Na). 8 hrs later, blood and liver tissues were isolated from anesthetized animals. The liver tissues were snap-frozen and stored at -80° C until use. Plasma was isolated from blood by centrifugation at 12,000 x g for 10 min at 4° C and stored at -80° C. In some experiments for animal mortality, mice were i.p. injected with TNFα /GalN and caspase inhibitor was injected 1 hr before, simultaneously, 2 hrs, or 4 hrs after TNFα /GalN injection.
Whole tissues (0.5 g) were homogenated in ice-cold lysis buffer (5 mM Tris, 20 mM EDTA, 0.5% Triton-X 100, pH8.0). The lysate was centrifuged at 12,000 x g for 20 min at 4° C. The supernatant was obtained and extracted twice with a mixture of phenol and chloroform. One-tenth volume of 3 M sodium acetate was added to the solution, and DNA was precipitated by adding an equal volume of isopropanol. After storing at -20° C overnight, a DNA pellet was obtained by centrifugation at 12,000 x g for 15 min. at 4 ° C and washed twice with 75% ethanol. The pellet was dried and resuspended in 100 µl of 20 mM Tris-HCl, pH 8.0. After digesting RNA with DNase-free RNase (0.1 mg/ml) at 37 ° C for 1 hr, samples […] were electrophoresed through a 1.2% agarose gel in […] Tris borate + EDTA (TBE), pH 8.0 buffer. DNA was photographed under visualized with UV light.
Liver tissues were homogenated in 10 mM HEPES buffer containing protease inhibitors (5 µg/ml aprotinin, 5 µg/ml pepstatin A, 10 µg/ml leupeptin, and 0.5 mM PMSF) and lysed by three freeze/thaw cycles. The cytosolic fraction was obtained by centrifugation at 12,000 x g for 20 min. at 4" C. Protein concentration was determined with BCA protein assay reagent (pierce, Rockford, IL). Cytosol containing 200 µg protein was combined in 96-well plate with […] of synthetic substrate Ac-DEVD-pNA in 150 µl of 100 mM HEPES, pH 7.4, containing the protease inhibitors, and the reaction was conducted for 1 hr at 37° C. […] Plasma level of aspartate aminotransferase (AST) was analyzed by spectrophotometry using each enzyme assay kit (Sigma).

[2] = test system: TNFα -mediated liver toxicity; test: TNFα-mediated liver toxicity and mortality in mice; type: in vivo, C57BL/6 female mice
[3] = mice treated with TNFα /ActD (so in the source)

kinact/KI (caspase-3) [M⁻¹ s⁻¹]	kinact/KI (caspase-1) [M⁻¹ s⁻¹]	SMILES	EC50 (Jurkat T cell) [µM]	other results
371	577000	CC(C)[C@H](NC(=O)c1cccc2ccccc12)C1=NOC(Cc2ccccc2)(C(=O)N[C@@H](CC(=O)O)C(=O)COC(=O)c2c(F)cccc2F)C1 (stereo partly drawn) [Compound 58, (3S)-3-{3-[2-methyl-(1S)-1-(naphthalene-1-carbonylamino)-propyl]-5-phenylmethyl-4,5-dihydro-isoxazole-5-carbonylamino}-4-keto-5-(2,6-difluorobenzoyloxy)-pentanoic acid]	1 to 10	–
197000	14000	CCCC1(C(=O)N[C@@H](CC(=O)O)C(=O)COC(=O)c2c(Cl)cccc2Cl)CC([C@@H](NC(=O)CCC(=O)O)C(C)C)=NO1 (single isomer, unassigned) [Compound 76]	1 to 10	–
1.14e+06	14900	CCCCC1(C(=O)N[C@@H](CC(=O)O)C(=O)COC(=O)c2c(Cl)cccc2Cl)CC([C@@H](NC(=O)CCC(=O)O)C(C)C)=NO1 (single isomer, unassigned) [Compound 80]	1 to 10	–
176000	30800	CC1(C(=O)N[C@@H](CC(=O)O)C(=O)COC(=O)c2c(Cl)cccc2Cl)CC([C@H](CCC(=O)O)NC(=O)CCC(=O)O)=NO1 (single isomer, unassigned) [Compound 72]	1 to 10	–
–	–	CC(C)[C@H](NC(=O)CCC(=O)O)C1=NOC(Cc2ccccc2)(C(=O)N[C@@H](CC(=O)O)C(=O)COC(=O)c2c(Cl)cccc2Cl)C1 (stereo partly drawn) [Compound 86, (3S)-3-{3-[2-methyl-(1S)-1-(succinoylamino)-propyl]-5-phenylmethyl-4,5-dihydro-isoxazole-5-carbonylamino}-4-keto-5-(2,6-dichlorobenzoyloxy)-pentanoic acid]	–	Kobs/[I] for caspase-3 (caspase-3): 28000 M⁻¹ s⁻¹; Kobs/[I] for caspase-1 (caspase-1): 7560 M⁻¹ s⁻¹
114	130000	CC(C)[C@H](NC(=O)CCc1ccccc1)C1=NOC(Cc2ccccc2)(C(=O)N[C@@H](CC(=O)O)C(=O)COC(=O)c2c(Cl)cccc2Cl)C1 (mixture of isomers) [Compound 32, (3S)-3-{3-[2-methyl-(1S)-1-(phenylethylcarbonylamino)-propyl]-5-phenylmethyl-4,5-dihydro-isoxazole-5-carbonylamino}-4-keto-5-(2,6-dichlorobenzoyloxy)-pentanoic acid]	1 to 10	–
160	408000	CC(C)[C@H](NC(=O)c1ccc2ccccc2n1)C1=NOC(Cc2ccccc2)(C(=O)N[C@@H](CC(=O)O)C(=O)COC(=O)c2c(Cl)cccc2Cl)C1 (stereo partly drawn) [Compound 42mp, (3S)-3-{3-[2-methyl-(1S)-1-(quinoline-2-yl-carbonylamino)-propyl]-5-phenylmethyl-4,5-dihydro-isoxazole-5-carbonylamino}-4-keto-5-(2,6-dichlorobenzoyloxy)-pentanoic acid]	1 to 10	–
–	–	CC(C)[C@H](NC(=O)CCC(=O)O)C1=NOC(C)(C(=O)N[C@@H](CC(=O)O)C(=O)COC(=O)c2c(Cl)cccc2Cl)C1 (stereo partly drawn) [Compound 74, (3S)-3-{3-[2-methyl-(1S)-1-(succinoylamino)-propyl]-5-methyl-4,5-dihydro-isoxazole-5-carbonylamino}-4-keto-5-(2,6-dichlorobenzoyloxy)-pentanoic acid]	–	Kobs/[I] for caspase-3 (caspase-3): 40900 M⁻¹ s⁻¹; Kobs/[I] for caspase-1 (caspase-1): 14500 M⁻¹ s⁻¹

SMILES	kinact/KI (caspase-3) [M⁻¹ s⁻¹]	kinact/KI (caspase-1) [M⁻¹ s⁻¹]	EC50 (Jurkat T cell) [µM]	other results
CC(C)[C@H](NC(=O)c1cccc2ccccc12)C1=NOC(Cc2ccccc2)(C(=O)N[C@@H](CC(=O)O)C(=O)COC(=O)c2c(Cl)cccc2Cl)C1 (stereo partly drawn) [Compound 33mp, (3S)-3-{3-[2-methyl-(1S)-1-(1-naphthalenecarbonylamino)-propyl]-5-phenylmethyl-4,5-dihydro-isoxazole-5-carbonylamino}-4-keto-5-(2,6-dichlorobenzoyloxy)-pentanoic acid]	500	807000	1 to 10	liver apoptosis as determined by DNA fragmentation ([1]; 0.4 mg/20 g, 1 mg/20 g i.p. 1 hr before anti-Fas antibody, 4 hrs after antibody): suppressed the liver apoptosis in a dose-dependent manner; release of liver enzyme AST ([1]; anti-Fas antibody-treated mice): significantly suppressed; reduction of mortality ([1]; anti-Fas antibody-treated mice (85% died within 24 hrs without treatment)): about 30%; caspase-3-like activity in liver tissues ([1]; anti-Fas antibody-treated mice, Ac-DEVD-pNA): abrogated; animals survived ([2]; TNFα /ActD-mediated mouse mortality, within 24 hrs): 80%; DNA fragmentation in liver tissues [2, 3]: significantly reduced; caspase-3-like activity in liver [2, 3]: suppressed; release of AST [2, 3]: suppressed
